Experiments:
[1] = test system: DR5 agonist-resistant MDA-MB-231 cells; test: Cell Titer Glo viability, Mab A + SMAC mimetic on DR5 agonist-resistant tumor cells (Example 8); type: cell-based
EBC-1 tumor cells = test: EBC-1 non-small cell lung cancer (NSCLC) model (Example 11); type: in vivo, mice; settings: birinapant 30 mg/kg i.p. every 3 days, alone or with Mab A 5 mg/kg i.v.; n=10 animals/group
Description: 3×10^6 EBC-1 tumor cells were implanted subcutaneously in the flanks of female BALB/c nude mice.

HT 1080 [2] = test: Cell Titer Glo viability, Mab A + birinapant (Example 10); type: cell-based; settings: HT 1080 (Fibrosarcoma)
Experimental: (§1) Cell viability curves for combinations of anti-DR5 IgM Mab A with birinapant on A2058, BT-20, DV-90, ES-2, HCC15, HCT 116, HT 1080, KYSE 410, MEWO, OVCAR-5, SK-LU-1, SK-MEL-5, SNU-1, SW780, SW1353, and T24 are shown in FIGS. 19A, 19C, 19E, 19G, 19I, 19K, 19M, 19O, 19Q, 19S, 19U, 19W, 19Y, 19AA, 19AC, and 19AE, respectively. Synergy was determined as described in earlier examples.

SW1353 [3] = test: as above; type: cell-based; settings: SW1353 (Chondrosarcoma)
Experimental: as §1

A2058 = test: as above; type: cell-based; settings: A2058 (Melanoma)
Experimental: as §1

T24 = test: as above; type: cell-based; settings: T24 (Bladder)
Experimental: as §1

SNU-1 = test: as above; type: cell-based; settings: SNU-1 (Gastric)
Experimental: as §1

MEWO = test: as above; type: cell-based; settings: MEWO (Melanoma)
Experimental: as §1

HCT 116 [4] = test: as above; type: cell-based; settings: HCT 116 (Colorectal)
Experimental: as §1

KYSE 410 = test: as above; type: cell-based; settings: KYSE 410 (Esophageal)
Experimental: as §1

ES-2 = test: as above; type: cell-based; settings: ES-2 (Ovarian)
Experimental: as §1

SW780 = test: as above; type: cell-based; settings: SW780 (Bladder)
Experimental: as §1

OVCAR-5 = test: as above; type: cell-based; settings: OVCAR-5 (Ovarian)
Experimental: as §1

BT-20 = test: as above; type: cell-based; settings: BT-20 (TNBC)
Experimental: as §1

HCC15 = test: as above; type: cell-based; settings: HCC15 (Lung)
Experimental: as §1

OE19 = test: Cell Titer Glo viability, Mab A + birinapant, head and neck tumor cell lines (Example 12); type: cell-based; settings: OE19 head and neck cancer cell line
Experimental: (§2) Exemplary cell viability curves for combinations of anti-DR5 IgM Mab A with birinapant on Detroit 562 and KYSE270 are shown in FIGS. 22A and 22C, respectively. Synergy was determined as described in earlier examples. […] The Average Bliss synergy scores for combinations of Mab A and birinapant on the various head and neck tumor cell lines are shown in Table 14.

8505C = test: as above; type: cell-based; settings: 8505C head and neck cancer cell line
Experimental: as §2

TE-1 = test: as above; type: cell-based; settings: TE-1 head and neck cancer cell line
Experimental: as §2

FaDu = test: as above; type: cell-based; settings: FaDu head and neck cancer cell line
Experimental: as §2

KYSE410 = test: as above; type: cell-based; settings: KYSE410 head and neck cancer cell line
Experimental: as §2

KYSE-70 = test: as above; type: cell-based; settings: KYSE-70 head and neck cancer cell line
Experimental: as §2

KYSE270 = test: as above; type: cell-based; settings: KYSE270 head and neck cancer cell line
Experimental: as §2

KYSE150 = test: as above; type: cell-based; settings: KYSE150 head and neck cancer cell line
Experimental: as §2

8305C = test: as above; type: cell-based; settings: 8305C head and neck cancer cell line
Experimental: as §2

Detroit 562 = test: as above; type: cell-based; settings: Detroit 562 head and neck cancer cell line
Experimental: as §2

A253 = test: as above; type: cell-based; settings: A253 head and neck cancer cell line
Experimental: as §2

SA3840 tumor fragments = test: SA3840 osteosarcoma PDX model (Example 11); type: in vivo, mice; settings: birinapant 30 mg/kg i.p., alone or with Mab A 5 mg/kg i.v.; n=5 animals/group
HT 1080 [5] = test: Cell Titer Glo viability, Mab A + SMAC mimetics (Example 13); type: cell-based; settings: SMAC mimetic in combination with Mab A
Experimental: (§3) Synergy was determined as described in earlier examples. The average Bliss synergy scores for combinations of Mab A and SMAC mimetic on the various tumor cell lines are shown in Table 15.

SW1353 [6] = test: as above; type: cell-based; settings: SMAC mimetic in combination with Mab A
Experimental: as §3

SK-MEL-5 = test: as above; type: cell-based; settings: SMAC mimetic in combination with Mab A
Experimental: as §3

HCT 116 [7] = test: as above; type: cell-based; settings: SMAC mimetic in combination with Mab A
Experimental: as §3

EBC-1 = test: as above; type: cell-based; settings: SMAC mimetic in combination with Mab A
Experimental: as §3

OVCAR-4 = test: as above; type: cell-based; settings: SMAC mimetic in combination with Mab A
Experimental: as §3

MDA-MB-231 tumor cells = test: Cell Titer Glo viability, Mab A + SMAC mimetic (Example 7); settings: MDA-MB-231 cells; 72 hours

`CC[C@H](NC(=O)[C@H](C)NC)C(=O)N1C[C@@H](O)C[C@H]1Cc1c(-c2[nH]c3cc(F)ccc3c2C[C@@H]2C[C@H](O)CN2C(=O)[C@H](CC)NC(=O)[C@H](C)NC)[nH]c2cc(F)ccc12` [birinapant, Birinapant] was tested. Which “single agent cytotoxicity (cell viability curves)” value [1] did it give?
The value was “little to no cytotoxicity”.

What about the “mice that missed doses due to body weight loss” value (EBC-1 tumor cells) of the same molecule?
The value was 3 mice.

What about the “Avg Bliss score” value (HT 1080 [2]) of the same molecule?
The value was 45.

What about the “Avg Bliss score” value (SW1353 [3]) of the same molecule?
The value was 18.

What about the “Avg Bliss score” value (A2058) of the same molecule?
Its value is 49.

And the “Avg Bliss score” value (T24)?
The value was 38.

And the “Avg Bliss score” value (SNU-1)?
Its value is 39.

What about the “Avg Bliss score” value (MEWO) of the same molecule?
Its value is 26.

And the “Avg Bliss score” value (HCT 116 [4])?
The value was 36.

And the “Avg Bliss score” value (KYSE 410)?
The value was 42.

What about the “Avg Bliss score” value (ES-2) of the same molecule?
The value was 19.

What about the “Avg Bliss score” value (SW780) of the same molecule?
Its value is 35.

What about the “Avg Bliss score” value (OVCAR-5) of the same molecule?
The value was 17.

What about the “Avg Bliss score” value (BT-20) of the same molecule?
Its value is 4.

What about the “Avg Bliss score” value (HCC15) of the same molecule?
Its value is 41.

What about the “Average Bliss score” value (OE19) of the same molecule?
The value was 17.

What about the “Average Bliss score” value (8505C) of the same molecule?
The value was 10.

What about the “Average Bliss score” value (TE-1) of the same molecule?
Its value is 29.

And the “Average Bliss score” value (FaDu)?
The value was 16.

And the “Average Bliss score” value (KYSE410)?
Its value is 35.

What about the “Average Bliss score” value (KYSE-70) of the same molecule?
Its value is 25.

What about the “Average Bliss score” value (KYSE270) of the same molecule?
The value was 15.

And the “Average Bliss score” value (KYSE150)?
The value was 0.2.

And the “Average Bliss score” value (8305C)?
The value was 27.

And the “Average Bliss score” value (Detroit 562)?
Its value is 36.

And the “Average Bliss score” value (A253)?
The value was 26.

And the “animals that missed doses due to body weight loss” value (SA3840 tumor fragments)?
The value was 1 animal.

What about the “Average Bliss score” value (HT 1080 [5]) of the same molecule?
Its value is 30.

What about the “Average Bliss score” value (SW1353 [6]) of the same molecule?
Its value is −0.6.

And the “Average Bliss score” value (SK-MEL-5)?
Its value is 14.

What about the “Average Bliss score” value (HCT 116 [7]) of the same molecule?
Its value is 31.

And the “Average Bliss score” value (EBC-1)?
Its value is 39.

What about the “Average Bliss score” value (OVCAR-4) of the same molecule?
Its value is 14.

And the “single agent cytotoxicity (cell viability curves)” value (MDA-MB-231 tumor cells)?
The value was “little to no cytotoxicity”.
